This note sets out measurements from patent publication US20230120597A1, “CO-AGONISTS AT GLP-1 AND GIP RECEPTORS SUITABLE FOR ORAL DELIVERY” (Novo Nordisk A/S, priority 2020, published 2023).

pEC50: −log10 of the molar value. Where two headings read alike, the source gives them in different places. Starred links: 1 amine or outer side, 2 acyl side, 3 side chain; linkers in the order of their positions; H or OH if unused. Non-standard residues stand in square brackets, D forms with d. Residues, ends and D or L forms follow the SMILES beside them. Groups on a side chain read outwards from the residue. *: point of attachment. C18 diacid = O=C(O)CCCCCCCCCCCCCCCCC(=O)*; γGlu = O=C(O)[C@H](CCC(=O)[*:2])N[*:1]; εLys = N[C@@H](CCCCN[*:1])C(=O)[*:2]; AEEA = NCCOCCOCC(=O)O; Aib = CC(C)(N)C(=O)O

For one assay, the target named is T1, human GLP-1 receptor (Homo sapiens, UniProt P43220).
T1 construct: expressed in transfected cells; host or cells: BHK (parent line BHKTS13), clone BHK CRE luc2P hGLP-1R
T1 sequence (P43220 24-463): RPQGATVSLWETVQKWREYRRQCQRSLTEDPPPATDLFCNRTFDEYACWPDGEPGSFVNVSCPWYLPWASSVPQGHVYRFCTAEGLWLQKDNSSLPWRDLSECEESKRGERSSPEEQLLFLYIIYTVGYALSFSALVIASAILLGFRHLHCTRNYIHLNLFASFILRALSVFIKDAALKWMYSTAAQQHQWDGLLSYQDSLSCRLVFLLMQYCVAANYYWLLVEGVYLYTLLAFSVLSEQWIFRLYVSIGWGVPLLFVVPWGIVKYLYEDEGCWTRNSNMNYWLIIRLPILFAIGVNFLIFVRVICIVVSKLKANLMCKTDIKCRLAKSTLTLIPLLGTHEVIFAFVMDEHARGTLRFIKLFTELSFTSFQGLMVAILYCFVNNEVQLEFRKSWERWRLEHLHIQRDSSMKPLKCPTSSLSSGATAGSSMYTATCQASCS
In words: In vitro functional potency, CRE luciferase reporter gene assay, whole BHK cells expressing hGLP-1R. The note with it: BHK CRE luc2P hGLP-1R cells. The format is cell-based. Here is the method: (§1) The in vitro functional potency is the measure of target receptor activation in a whole cell assay.
(§2) In vitro functional potency was determined by measuring the response of the target receptor in a reporter gene assay in individual cell lines. […] When the respective receptor is activated, it results in the production of cAMP, which in turn results in expression of the luciferase protein. When assay incubation is completed, luciferase substrate (luciferin) is added resulting in the enzymatic conversion of luciferin to oxyluciferin and producing bioluminescence. The luminescence is measured as the readout for the assay.
(§3) The cells lines used in these assays were BHK cells with BHKTS13 as a parent cell line. The cell lines were derived from a clone containing the CRE luciferase element and were established by further transfection with the respective human receptor to obtain the relevant cell line: BHK CRE luc2P hGLP-1R or BHK CRE luc2P hGIPR. The cells were cultured at 37° C. with 5% CO2 in Cell Culture Medium. They were aliquoted and stored in liquid nitrogen. The cells were kept in continuous culture and were seeded out the day before each assay.
(§4) GLP-1R Cell Culture Medium consisted of DMEM medium with 10% FBS, 500 μg/mL G418, and 300 μg/mL hygromycin. GIPR Cell Culture Medium consisted of DMEM medium with 10% FBS, 400 μg/mL G418, and 300 μg/mL hygromycin. Assay Buffer consisted of DMEM w/o phenol red, 10 mM Hepes, 1× Glutamax. 1% ovalbumin, and 0.1% Pluronic F-68 with the addition of HSA at twice the final assay concentration.
(§5) Procedure • 1) Cells were plated at 5000 cells/well and incubated overnight in the assay plate. • 2) Cells were washed once in DPBS. • 3) Stocks of the test compounds and reference compounds in concentrations ranging from […] were diluted 1:150 in Assay Buffer. Compounds were then diluted 1:10 in column 1 of a 96 deep well dilution plate and then carried across the row creating a 3.5 fold, 12 point dilution curve. • 4) Assay Buffer (50 μl aliquot) with or without HSA was added to each well in the assay plate. • 5) A 50 μl aliquot of compound or blank was transferred from the dilution plate to the assay plate containing the Assay Buffer with or without HSA. • 6) The assay plate was incubated for 3 h in a 5% CO2 incubator at 37° C. • 7) The cells were washed once with DPBS. • 8) A 100 μl aliquot of DPBS was added to each well of the assay plate. • 9) A 100 μl aliquot of steadylite plus reagent (light sensitive) was added to each well of the assay plate. • 10) Each assay plate was covered with aluminum foil to protect it from light and shaken at 250 RPM for 30 min at room temperature. • 11) Each assay plate was read in a microtiter plate reader.
(§6) The data from the microtiter plate reader was first regressed in an Excel in order to calculate the x-axis, log scale concentrations based on the individual test compound's stock concentration and the dilutions of the assay. […] The software performs a non-linear regression (log(agonist) vs response). A minimum of two replicates was measured for each sample. The reported values are averages of the replicates.
A general note: Reporter assays use an easily measured gene product as a stand-in for the process of interest.

The target of a further assay is T2, human GIP receptor (Homo sapiens, UniProt P48546).
T2 construct: expressed in transfected cells; host or cells: BHK (parent line BHKTS13), clone BHK CRE luc2P hGIPR
T2 sequence (P48546 22-466): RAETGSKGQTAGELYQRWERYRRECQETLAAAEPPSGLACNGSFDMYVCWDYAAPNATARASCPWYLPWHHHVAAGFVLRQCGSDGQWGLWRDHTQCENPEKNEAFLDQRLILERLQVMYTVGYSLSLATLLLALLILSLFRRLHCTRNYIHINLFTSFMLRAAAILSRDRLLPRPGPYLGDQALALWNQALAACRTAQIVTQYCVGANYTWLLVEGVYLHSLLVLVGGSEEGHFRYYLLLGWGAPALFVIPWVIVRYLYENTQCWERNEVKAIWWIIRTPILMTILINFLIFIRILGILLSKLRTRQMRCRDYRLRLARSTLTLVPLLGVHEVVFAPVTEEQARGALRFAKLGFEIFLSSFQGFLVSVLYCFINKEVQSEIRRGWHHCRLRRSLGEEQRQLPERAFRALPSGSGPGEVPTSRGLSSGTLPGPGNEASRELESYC
Briefly: In vitro functional potency, CRE luciferase reporter gene assay, whole BHK cells expressing hGIPR. It is filed as cell-based. The note with it: BHK CRE luc2P hGIPR cells. On the procedure: as §1, §2, §3, §4, §5, §6

Setting [1] is: 0% HSA, read-out: hGLP-1R, CRE Luc 0% HSA EC50.
[2] abbreviates: hGLP-1R, CRE Luc 1% HSA EC50, 1% HSA.
[3] abbreviates: 0% HSA, read-out: hGIPR, CRE Luc 0% HSA EC50.
[4] abbreviates: hGIPR, CRE Luc 1% HSA EC50, 1% HSA.

For the compound `CC(C)C[C@H](NC(=O)[C@H](CC(C)C)NC(=O)[C@H](Cc1c[nH]c2ccccc12)NC(=O)[C@H](CC(N)=O)NC(=O)[C@@H](NC(=O)[C@H](Cc1ccccc1)NC(=O)[C@H](C)NC(=O)[C@H](CCC(N)=O)NC(=O)[C@H](C)NC(=O)[C@H](C)NC(=O)[C@H](CCC(N)=O)NC(=O)[C@H](CCCCNC(=O)[C@@H](N)CCCCNC(=O)[C@@H](N)CCCCNC(=O)CC[C@H](NC(=O)CCCCCCCCCCCCCCCCC(=O)O)C(=O)O)NC(=O)[C@H](CCC(=O)O)NC(=O)[C@H](CC(C)C)NC(=O)[C@H](Cc1ccc(O)cc1)NC(=O)[C@H](Cc1ccc(O)cc1)NC(=O)[C@H](CO)NC(=O)[C@H](Cc1ccc(O)cc1)NC(=O)[C@H](CC(=O)O)NC(=O)[C@H](CO)NC(=O)[C@@H](NC(=O)[C@H](Cc1ccccc1)NC(=O)[C@@H](NC(=O)CNC(=O)[C@H](CCC(=O)O)NC(=O)C(C)(C)NC(=O)[C@@H](N)Cc1ccc(O)cc1)[C@@H](C)O)[C@@H](C)O)C(C)C)C(=O)N[C@@H](C)C(=O)NCC(=O)NCC(=O)N1CCC[C@H]1C(=O)N[C@@H](CO)C(=O)N[C@@H](CO)C(=O)NCC(=O)N[C@@H](C)C(=O)N1CCC[C@H]1C(=O)N1CCC[C@H]1C(=O)N1CCC[C@H]1C(=O)N[C@@H](CO)C(N)=O` [Compound No. 4] (H-Y[Aib]EGTFTSDYSYYLEK([εLys-εLys-γGlu-C18 diacid])QAAQAFVNWLLAGGPSSGAPPPS-NH2; N-terminus assumed), the pEC50 on human GLP-1 receptor (setting [1]) was 11.18; on human GLP-1 receptor (setting [2]), 9.31; at human GIP receptor (setting [3]), 11.07; at human GIP receptor (setting [4]) it was 9.53.
For `CC(C)C[C@H](NC(=O)[C@H](CC(C)C)NC(=O)[C@H](Cc1c[nH]c2ccccc12)NC(=O)[C@H](CC(N)=O)NC(=O)[C@@H](NC(=O)[C@H](Cc1ccccc1)NC(=O)[C@H](C)NC(=O)[C@H](CCC(N)=O)NC(=O)[C@H](C)NC(=O)[C@H](C)NC(=O)[C@H](CCC(N)=O)NC(=O)[C@H](CCCCNC(=O)[C@@H](N)CCCCNC(=O)[C@@H](N)CCCCNC(=O)CC[C@H](NC(=O)CCCCCCCCCCCCCCCCC(=O)O)C(=O)O)NC(=O)[C@H](CCC(=O)O)NC(=O)[C@H](CC(C)C)NC(=O)[C@H](Cc1ccc(O)cc1)NC(=O)[C@H](Cc1ccc(O)cc1)NC(=O)[C@H](CO)NC(=O)[C@H](Cc1ccc(O)cc1)NC(=O)[C@H](CC(=O)O)NC(=O)[C@H](CO)NC(=O)[C@@H](NC(=O)[C@H](Cc1ccccc1)NC(=O)[C@@H](NC(=O)CNC(=O)[C@H](CCC(=O)O)NC(=O)C(C)(C)NC(=O)[C@@H](N)Cc1ccc(O)cc1)[C@@H](C)O)[C@@H](C)O)C(C)C)C(=O)N[C@@H](C)C(=O)NCC(=O)NCC(=O)N1CCC[C@H]1C(=O)N[C@@H](CO)C(=O)N[C@@H](CO)C(=O)NCC(=O)N[C@@H](C)C(=O)N1CCC[C@H]1C(=O)N1CCC[C@H]1C(=O)N1CCC[C@H]1C(=O)N[C@@H](CO)C(=O)O` [Compound No. 5] (H-Y[Aib]EGTFTSDYSYYLEK([εLys-εLys-γGlu-C18 diacid])QAAQAFVNWLLAGGPSSGAPPPS-OH; N-terminus assumed), the pEC50 on human GLP-1 receptor (setting [1]) was 11.03; at human GLP-1 receptor (setting [2]), 9.20; at human GIP receptor (setting [3]), 10.85; on human GIP receptor (setting [4]), 9.44.
For the compound `CC[C@H](C)[C@H](NC(=O)[C@H](CO)NC(=O)[C@H](Cc1ccc(O)cc1)NC(=O)[C@H](CC(=O)O)NC(=O)[C@H](CO)NC(=O)[C@@H](NC(=O)[C@H](Cc1ccccc1)NC(=O)[C@@H](NC(=O)CNC(=O)[C@H](CCC(=O)O)NC(=O)C(C)(C)NC(=O)[C@@H](N)Cc1ccc(O)cc1)[C@@H](C)O)[C@@H](C)O)C(=O)N[C@@H](Cc1ccc(O)cc1)C(=O)N[C@@H](CC(C)C)C(=O)N[C@@H](CCC(=O)O)C(=O)N[C@@H](CCCCNC(=O)[C@@H](N)CCCCNC(=O)[C@@H](N)CCCCNC(=O)CC[C@H](NC(=O)CCCCCCCCCCCCCCCCC(=O)O)C(=O)O)C(=O)N[C@@H](CCC(N)=O)C(=O)N[C@@H](C)C(=O)N[C@@H](C)C(=O)N[C@@H](CCCNC(=N)N)C(=O)N[C@@H](CCC(=O)O)C(=O)N[C@@H](Cc1ccccc1)C(=O)N[C@H](C(=O)N[C@@H](CC(N)=O)C(=O)N[C@@H](Cc1c[nH]c2ccccc12)C(=O)N[C@@H](CC(C)C)C(=O)N[C@@H](CC(C)C)C(=O)N[C@@H](C)C(=O)NCC(=O)NCC(=O)N1CCC[C@H]1C(=O)N[C@@H](CO)C(=O)N[C@@H](CO)C(=O)NCC(=O)N[C@@H](C)C(=O)N1CCC[C@H]1C(=O)N1CCC[C@H]1C(=O)N1CCC[C@H]1C(=O)N[C@@H](CO)C(N)=O)C(C)C` [Compound No. 6] (H-Y[Aib]EGTFTSDYSIYLEK([εLys-εLys-γGlu-C18 diacid])QAAREFVNWLLAGGPSSGAPPPS-NH2), the pEC50 at human GLP-1 receptor (setting [1]) is 11.47; on human GLP-1 receptor (setting [2]) it was 9.61; at human GIP receptor (setting [3]) it was 10.73; at human GIP receptor (setting [4]) it was 9.36.
In the same order, the values of `CC[C@H](C)[C@H](NC(=O)[C@H](CO)NC(=O)[C@H](Cc1ccc(O)cc1)NC(=O)[C@H](CC(=O)O)NC(=O)[C@H](CO)NC(=O)[C@@H](NC(=O)[C@H](Cc1ccccc1)NC(=O)[C@@H](NC(=O)CNC(=O)[C@H](CCC(=O)O)NC(=O)C(C)(C)NC(=O)[C@@H](N)Cc1ccc(O)cc1)[C@@H](C)O)[C@@H](C)O)C(=O)N[C@@H](Cc1ccc(O)cc1)C(=O)N[C@@H](CC(C)C)C(=O)N[C@@H](CCC(=O)O)C(=O)N[C@@H](CCCCNC(=O)COCCOCCNC(=O)COCCOCCNC(=O)CC[C@H](NC(=O)CCCCCCCCCCCCCCCCC(=O)O)C(=O)O)C(=O)N[C@@H](CCC(N)=O)C(=O)N[C@@H](C)C(=O)N[C@@H](C)C(=O)N[C@@H](CCCNC(=N)N)C(=O)N[C@@H](CCC(=O)O)C(=O)N[C@@H](Cc1ccccc1)C(=O)N[C@H](C(=O)N[C@@H](CC(N)=O)C(=O)N[C@@H](Cc1c[nH]c2ccccc12)C(=O)N[C@@H](CC(C)C)C(=O)N[C@@H](CC(C)C)C(=O)N[C@@H](C)C(=O)NCC(=O)NCC(=O)N1CCC[C@H]1C(=O)N[C@@H](CO)C(=O)N[C@@H](CO)C(=O)NCC(=O)N[C@@H](C)C(=O)N1CCC[C@H]1C(=O)N1CCC[C@H]1C(=O)N1CCC[C@H]1C(=O)N[C@@H](CO)C(N)=O)C(C)C` [Compound No. 7] (H-Y[Aib]EGTFTSDYSIYLEK([AEEA-AEEA-γGlu-C18 diacid])QAAREFVNWLLAGGPSSGAPPPS-NH2) are 11.38, 9.29, 10.54 and 9.16.

The pEC50 is the negative decadic logarithm of the EC50, by convention in mol/L.
